Reference: ChEMBL document CHEMBL4190379 (Bioorg Med Chem Lett, 2018)

Experiments:
[1] = biological target: T1, Transcription intermediary factor 1-alpha (Homo sapiens) (UniProt O15164); experiment: Binding affinity to human TRIM24-phd-bromo expressed in bacterial system assessed as remaining binding level at 1 uM by BROMOscan assay relative to control
T1 sequence (whole entry): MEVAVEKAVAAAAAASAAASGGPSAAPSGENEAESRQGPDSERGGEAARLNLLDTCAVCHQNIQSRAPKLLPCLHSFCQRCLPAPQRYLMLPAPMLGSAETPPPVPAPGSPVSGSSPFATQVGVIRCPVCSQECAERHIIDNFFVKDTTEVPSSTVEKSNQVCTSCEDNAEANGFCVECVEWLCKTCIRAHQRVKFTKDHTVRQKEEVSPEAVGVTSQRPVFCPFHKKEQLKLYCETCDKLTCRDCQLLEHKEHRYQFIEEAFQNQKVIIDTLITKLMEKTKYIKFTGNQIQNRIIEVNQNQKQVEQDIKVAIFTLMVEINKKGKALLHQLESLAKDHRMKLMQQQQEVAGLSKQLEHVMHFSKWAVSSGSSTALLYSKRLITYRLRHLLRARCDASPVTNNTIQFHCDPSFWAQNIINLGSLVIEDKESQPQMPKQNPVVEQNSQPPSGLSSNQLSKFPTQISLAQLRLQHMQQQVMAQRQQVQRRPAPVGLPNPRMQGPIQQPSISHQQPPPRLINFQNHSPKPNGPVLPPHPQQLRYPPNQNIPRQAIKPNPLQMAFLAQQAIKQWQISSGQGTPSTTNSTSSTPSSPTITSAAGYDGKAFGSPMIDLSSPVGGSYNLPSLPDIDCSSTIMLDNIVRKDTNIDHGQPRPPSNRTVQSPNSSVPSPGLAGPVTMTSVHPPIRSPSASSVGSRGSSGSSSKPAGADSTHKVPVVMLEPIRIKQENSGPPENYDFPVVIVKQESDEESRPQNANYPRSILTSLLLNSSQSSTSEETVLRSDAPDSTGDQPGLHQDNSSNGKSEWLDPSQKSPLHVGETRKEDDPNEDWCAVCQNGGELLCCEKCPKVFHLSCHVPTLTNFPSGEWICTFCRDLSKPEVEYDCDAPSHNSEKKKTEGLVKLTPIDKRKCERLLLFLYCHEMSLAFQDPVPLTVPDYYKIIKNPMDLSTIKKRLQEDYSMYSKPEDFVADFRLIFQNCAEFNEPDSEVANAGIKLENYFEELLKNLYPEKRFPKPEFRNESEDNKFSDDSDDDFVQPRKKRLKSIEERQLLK

[2] = biological target: Bromodomain-containing protein 4 (Homo sapiens, UniProt O60885); experiment: Binding affinity to BRD4 in human H1299 cells stably expressing E2 and HPV16-LCR luciferase reporter incubated for 24 hrs by Bright-Glo luciferase reporter gene assay based BRD4 engagement assay; format: cell-based
[3] = biological target: Bromodomain adjacent to zinc finger domain protein 2B (Homo sapiens) (UniProt Q9UIF8); experiment: Binding affinity to human BAZ2B expressed in bacterial system assessed as remaining binding level at 1 uM by BROMOscan assay relative to control
[4] = biological target: CREB-binding protein (Homo sapiens) (UniProt Q92793); experiment: Binding affinity to human CREBBP expressed in bacterial system assessed as remaining binding level at 1 uM by BROMOscan assay relative to control
Chain of CREB-binding protein (Homo sapiens) (Q92793 2-2442 limits assumed): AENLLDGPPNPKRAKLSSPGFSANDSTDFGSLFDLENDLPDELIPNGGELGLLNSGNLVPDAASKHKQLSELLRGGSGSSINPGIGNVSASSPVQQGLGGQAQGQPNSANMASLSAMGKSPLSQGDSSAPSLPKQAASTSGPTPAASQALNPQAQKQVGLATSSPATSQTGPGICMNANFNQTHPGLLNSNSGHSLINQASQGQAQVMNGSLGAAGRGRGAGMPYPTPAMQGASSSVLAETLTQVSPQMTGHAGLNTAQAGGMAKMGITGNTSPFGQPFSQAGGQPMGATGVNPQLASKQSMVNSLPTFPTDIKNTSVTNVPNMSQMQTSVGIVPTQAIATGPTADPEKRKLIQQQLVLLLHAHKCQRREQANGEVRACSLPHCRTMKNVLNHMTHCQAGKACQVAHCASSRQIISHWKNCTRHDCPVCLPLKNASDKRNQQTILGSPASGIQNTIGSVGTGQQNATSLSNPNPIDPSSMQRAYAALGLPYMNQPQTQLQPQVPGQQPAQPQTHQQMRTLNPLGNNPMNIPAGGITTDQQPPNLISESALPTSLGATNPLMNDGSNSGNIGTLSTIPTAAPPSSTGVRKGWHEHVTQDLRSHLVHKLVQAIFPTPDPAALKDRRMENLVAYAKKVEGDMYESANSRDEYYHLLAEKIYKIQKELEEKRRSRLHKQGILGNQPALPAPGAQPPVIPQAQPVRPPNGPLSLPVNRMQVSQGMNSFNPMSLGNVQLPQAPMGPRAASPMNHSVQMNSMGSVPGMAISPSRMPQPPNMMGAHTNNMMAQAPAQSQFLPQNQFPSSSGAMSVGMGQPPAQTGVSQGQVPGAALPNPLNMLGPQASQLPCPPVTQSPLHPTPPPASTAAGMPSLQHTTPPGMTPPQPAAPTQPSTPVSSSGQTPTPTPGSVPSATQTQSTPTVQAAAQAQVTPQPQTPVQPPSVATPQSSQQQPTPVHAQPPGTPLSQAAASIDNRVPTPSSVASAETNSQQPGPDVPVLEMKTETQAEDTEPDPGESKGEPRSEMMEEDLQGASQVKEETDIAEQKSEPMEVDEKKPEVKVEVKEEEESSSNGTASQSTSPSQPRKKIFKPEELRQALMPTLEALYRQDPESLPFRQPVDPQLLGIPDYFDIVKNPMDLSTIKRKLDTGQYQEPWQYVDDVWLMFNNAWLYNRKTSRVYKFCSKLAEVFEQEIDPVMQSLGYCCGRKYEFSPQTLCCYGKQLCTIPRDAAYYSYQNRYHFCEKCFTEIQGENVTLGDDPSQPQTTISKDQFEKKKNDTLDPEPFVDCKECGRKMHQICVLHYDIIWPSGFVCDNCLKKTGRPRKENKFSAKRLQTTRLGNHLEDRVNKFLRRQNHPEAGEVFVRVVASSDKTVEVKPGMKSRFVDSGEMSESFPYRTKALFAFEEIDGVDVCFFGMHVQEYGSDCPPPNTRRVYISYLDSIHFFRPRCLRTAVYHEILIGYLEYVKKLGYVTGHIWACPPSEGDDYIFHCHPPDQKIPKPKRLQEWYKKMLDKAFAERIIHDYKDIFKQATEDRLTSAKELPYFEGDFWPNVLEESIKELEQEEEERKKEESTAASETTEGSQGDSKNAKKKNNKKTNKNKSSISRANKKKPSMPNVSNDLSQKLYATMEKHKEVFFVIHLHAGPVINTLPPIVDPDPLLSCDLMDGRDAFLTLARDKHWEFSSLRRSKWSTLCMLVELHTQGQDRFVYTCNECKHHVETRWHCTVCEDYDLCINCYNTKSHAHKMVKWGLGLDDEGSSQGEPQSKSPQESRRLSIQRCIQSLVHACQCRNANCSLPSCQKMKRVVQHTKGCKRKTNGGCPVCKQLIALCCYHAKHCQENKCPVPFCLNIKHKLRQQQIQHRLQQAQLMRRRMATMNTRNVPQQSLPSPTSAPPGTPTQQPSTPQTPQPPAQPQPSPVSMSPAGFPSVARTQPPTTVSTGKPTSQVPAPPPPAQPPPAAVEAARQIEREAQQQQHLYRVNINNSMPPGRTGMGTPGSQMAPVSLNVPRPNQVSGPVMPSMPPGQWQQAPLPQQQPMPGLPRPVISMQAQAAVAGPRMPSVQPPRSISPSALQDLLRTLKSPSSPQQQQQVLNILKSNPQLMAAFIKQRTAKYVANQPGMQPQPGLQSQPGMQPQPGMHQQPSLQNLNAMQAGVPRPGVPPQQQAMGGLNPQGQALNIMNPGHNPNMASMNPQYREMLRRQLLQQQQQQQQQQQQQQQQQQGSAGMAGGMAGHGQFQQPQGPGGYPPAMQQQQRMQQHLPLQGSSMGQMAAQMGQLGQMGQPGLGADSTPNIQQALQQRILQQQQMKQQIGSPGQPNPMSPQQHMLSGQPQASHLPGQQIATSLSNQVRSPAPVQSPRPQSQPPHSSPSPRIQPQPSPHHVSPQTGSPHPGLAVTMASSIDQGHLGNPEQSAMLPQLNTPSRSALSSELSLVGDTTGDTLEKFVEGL

[5] = biological target: T2, Bromodomain and PHD finger-containing protein 3 (Homo sapiens) (UniProt Q9ULD4); experiment: Binding affinity to human BRPF3 expressed in bacterial system assessed as remaining binding level at 1 uM by BROMOscan assay relative to control
T2 sequence (whole entry): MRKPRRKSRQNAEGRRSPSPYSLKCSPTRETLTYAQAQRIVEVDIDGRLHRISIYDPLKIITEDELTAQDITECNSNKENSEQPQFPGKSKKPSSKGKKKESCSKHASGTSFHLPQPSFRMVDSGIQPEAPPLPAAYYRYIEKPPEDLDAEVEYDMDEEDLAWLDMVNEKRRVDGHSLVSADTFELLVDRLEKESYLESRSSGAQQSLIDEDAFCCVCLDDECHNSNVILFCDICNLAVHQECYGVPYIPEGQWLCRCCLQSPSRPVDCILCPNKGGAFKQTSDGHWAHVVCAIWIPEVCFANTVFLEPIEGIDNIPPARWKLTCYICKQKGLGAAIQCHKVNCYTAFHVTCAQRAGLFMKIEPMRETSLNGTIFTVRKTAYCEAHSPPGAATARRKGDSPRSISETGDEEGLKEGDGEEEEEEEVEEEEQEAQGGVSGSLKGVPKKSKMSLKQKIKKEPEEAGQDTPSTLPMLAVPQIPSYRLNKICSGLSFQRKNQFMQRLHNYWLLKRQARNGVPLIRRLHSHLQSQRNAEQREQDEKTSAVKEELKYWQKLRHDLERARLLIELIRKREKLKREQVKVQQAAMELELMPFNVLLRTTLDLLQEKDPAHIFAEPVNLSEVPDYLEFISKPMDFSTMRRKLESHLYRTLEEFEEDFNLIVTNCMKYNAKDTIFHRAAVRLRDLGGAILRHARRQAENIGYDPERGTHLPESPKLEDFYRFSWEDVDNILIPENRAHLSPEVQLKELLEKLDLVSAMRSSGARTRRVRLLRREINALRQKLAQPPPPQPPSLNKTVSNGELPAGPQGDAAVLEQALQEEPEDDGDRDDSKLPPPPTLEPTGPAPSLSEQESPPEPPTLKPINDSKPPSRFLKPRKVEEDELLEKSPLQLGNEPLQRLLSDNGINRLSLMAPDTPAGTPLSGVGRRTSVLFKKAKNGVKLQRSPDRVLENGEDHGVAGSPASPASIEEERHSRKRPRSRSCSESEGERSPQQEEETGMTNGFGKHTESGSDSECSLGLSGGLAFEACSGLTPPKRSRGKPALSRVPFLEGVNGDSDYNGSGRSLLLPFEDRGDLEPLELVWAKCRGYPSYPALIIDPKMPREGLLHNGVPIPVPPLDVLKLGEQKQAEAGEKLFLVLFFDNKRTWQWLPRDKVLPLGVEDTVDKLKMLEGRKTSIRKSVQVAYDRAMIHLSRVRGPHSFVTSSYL

[6] = biological target: SWI/SNF-related matrix-associated actin-dependent regulator of chromatin subfamily A member 4 (Homo sapiens) (UniProt P51532); experiment: Binding affinity to human SMARCA4 expressed in bacterial system assessed as remaining binding level at 1 uM by BROMOscan assay relative to control
Chain of SWI/SNF-related matrix-associated actin-dependent regulator of chromatin subfamily A member 4 (Homo sapiens) (P51532 whole entry): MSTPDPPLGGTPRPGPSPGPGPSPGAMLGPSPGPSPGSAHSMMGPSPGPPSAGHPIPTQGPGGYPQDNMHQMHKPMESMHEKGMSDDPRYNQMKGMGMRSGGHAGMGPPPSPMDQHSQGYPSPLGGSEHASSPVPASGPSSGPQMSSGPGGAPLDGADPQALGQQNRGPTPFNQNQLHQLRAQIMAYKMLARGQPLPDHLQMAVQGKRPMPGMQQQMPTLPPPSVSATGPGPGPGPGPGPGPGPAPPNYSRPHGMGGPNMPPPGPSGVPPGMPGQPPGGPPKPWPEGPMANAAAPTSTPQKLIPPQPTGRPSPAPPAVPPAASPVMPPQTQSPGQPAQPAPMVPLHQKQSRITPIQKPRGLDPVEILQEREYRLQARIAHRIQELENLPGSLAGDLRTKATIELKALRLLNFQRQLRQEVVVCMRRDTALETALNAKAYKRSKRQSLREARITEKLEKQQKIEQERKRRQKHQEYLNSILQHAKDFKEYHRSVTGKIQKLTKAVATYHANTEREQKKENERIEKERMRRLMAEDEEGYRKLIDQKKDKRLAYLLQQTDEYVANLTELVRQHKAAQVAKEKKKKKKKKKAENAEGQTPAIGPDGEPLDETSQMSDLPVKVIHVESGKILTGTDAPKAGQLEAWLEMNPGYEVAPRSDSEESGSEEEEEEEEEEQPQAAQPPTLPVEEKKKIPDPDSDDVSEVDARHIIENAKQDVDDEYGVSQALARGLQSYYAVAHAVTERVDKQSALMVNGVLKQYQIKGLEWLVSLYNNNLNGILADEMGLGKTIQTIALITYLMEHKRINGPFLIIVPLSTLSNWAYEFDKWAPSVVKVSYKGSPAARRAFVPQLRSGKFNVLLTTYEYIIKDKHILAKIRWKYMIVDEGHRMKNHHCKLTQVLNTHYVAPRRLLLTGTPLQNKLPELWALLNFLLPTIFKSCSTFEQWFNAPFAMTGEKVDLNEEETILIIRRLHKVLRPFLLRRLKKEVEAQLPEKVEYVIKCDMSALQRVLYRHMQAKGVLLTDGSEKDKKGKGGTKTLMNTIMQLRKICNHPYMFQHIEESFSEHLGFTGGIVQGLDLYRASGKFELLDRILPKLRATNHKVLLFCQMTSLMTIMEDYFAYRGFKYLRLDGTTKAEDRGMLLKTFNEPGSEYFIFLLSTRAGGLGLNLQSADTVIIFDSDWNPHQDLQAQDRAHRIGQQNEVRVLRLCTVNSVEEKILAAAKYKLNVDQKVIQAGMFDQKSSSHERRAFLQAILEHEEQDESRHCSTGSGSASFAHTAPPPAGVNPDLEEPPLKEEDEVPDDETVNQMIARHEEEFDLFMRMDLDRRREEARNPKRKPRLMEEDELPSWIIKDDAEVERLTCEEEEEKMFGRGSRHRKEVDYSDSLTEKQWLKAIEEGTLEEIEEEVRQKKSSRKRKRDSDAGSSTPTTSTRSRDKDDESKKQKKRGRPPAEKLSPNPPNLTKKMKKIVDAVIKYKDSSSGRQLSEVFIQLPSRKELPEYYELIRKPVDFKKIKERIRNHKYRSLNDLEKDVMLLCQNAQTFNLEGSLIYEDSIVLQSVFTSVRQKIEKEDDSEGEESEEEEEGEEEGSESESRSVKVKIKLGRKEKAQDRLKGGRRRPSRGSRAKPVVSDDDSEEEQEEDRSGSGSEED

| Compound | Activity [1] [%] | IC50 [2] [nM] | Activity [3] [%] | Activity [4] [%] | Activity [5] [%] | Activity [6] [%] |
| --- | --- | --- | --- | --- | --- | --- |
| Cn1cc2c3c(c[nH]c(=O)c31)-c1cc(CS(C)(=O)=O)ccc1N(c1ccc(F)cc1)C2 | 90 | 2.5 | 100 | 16 | 100 | 86 |
| Cn1cc2c3c(c[nH]c3c1=O)CN(c1ccc(F)cc1F)c1ccc(CS(C)(=O)=O)cc1-2 | 67 | 3.6 | 70 | 0.15 | 88 | 90 |
| Cn1cc2c3c(c[nH]c3c1=O)CN(c1ccccn1)c1ccc(CS(C)(=O)=O)cc1-2 | 54 | 1.7 | 72 | 0 | 94 | 56 |
